Article PMC9834611 (Pharmacology Research & Perspectives, 2023)
Read-outs that look alike come from different tables or passages of the source.

Assays:
[1] = VBL PK study in wild‐type and Mdr1a/b(−/−) mice, observed serum and tissue data; conditions: female, mouse, iv, 2 mg/kg; for half-life: in vivo, 2 mg/kg IV, Obs
Experimental: Mouse protocols were approved by the Institutional Animal Care and Use Committee at Colorado State University. Two strains of mice were used: FVB female mice and Mdr1a/b (−/−) (knock‐out, KO) female mice in a FVB background (Taconic Biosciences, Inc) for a total of 15 mice per strain with three mice per time point. […] Whole blood and tissues were harvested throughout a time range of 0.08 to 6 h. Whole blood was collected with heparinized needles and transferred to a microcentrifuge tube and was spun at 1200xg for 10 min at 4°C. The resulting serum and tissues were flash‐frozen in liquid nitrogen and stored at −80°C until ready for analysis.
Serum samples (200μl) were spiked with 50 ng (10 μl of 5 μg/ml solution) of vincristine as an internal standard. […] During vortex mixing, solid‐phase extraction cartridges were prepared by the addition of 400 μl methanol followed by 400 μl milli‐Q water. Loaded samples were then washed twice with 5% methanol. […] Samples were then evaporated to dryness using a Savant AES 1000 SpeedVac. Samples were then resuspended in 100 μl of diluent and transferred to autosampler vials with glass inserts for injection onto the HPLC system.
Positive ion electrospray ionization (ESI) mass spectra were obtained with a MDS Sciex 3200 Q‐TRAP triple quadrupole mass spectrometer (Applied Biosystems Inc) with a turbo ionspray source interfaced to a Shimadzu HPLC system and an HTC‐PAL autosampler (Leap Technologies). Samples were chromatographed with an Agilent ZORBAX Rx/SB‐C 8 (4.6 × 75 mm) column (Agilent Technologies) protected by a C 18 guard cartridge, 4.0 mm by 2.0 mm (Phenomenex). An LC gradient was employed with mobile phase A consisting of 10 mM ammonium acetate pH 4.0 and mobile phase B consisting of acetonitrile. Chromatographic resolution was obtained by holding mobile phase B steady at 50% from 0 to 0.01 min, increasing linearly from 50% to […] from 0.01 to 3.0 min, holding steady at 99% from 3.0 to 4.5 min, decreasing linearly from 99% to 50% from 4.5 to 5.0 min, followed by equilibration at 50% from 5.0 to 6.0 min. The LC flow rate was 0.75 ml/min and the sample injection volume was 10 μl. The analysis run time was 6.0 min.
Analyst v1.5.1 software (Applied Biosystems) was used for peak area integration.
Plasma and tissue concentrations were measured at time intervals between […] and 6 h post‐drug administration. The mouse PBPK model for Mdr1a/b (−/−) mice and wild‐type mice was developed using SimBiology, MATLAB with a focus on the following tissues: plasma, brain, bone marrow, liver, gut, and kidney. The primary drivers of vinca disposition including tubulin binding, ABCB1‐mediated transport, and elimination via metabolism, biliary clearance, and glomerular filtration created the foundation of the model. Metabolism values were either derived experimentally or sourced from literature, while tissue partitioning and Michaelis–Menten parameters for ABCB1 transport and biliary excretion were optimized using plasma and tissue PK data.

ABCB1 = ABCB1 transport Vmax optimized to in vivo canine PK data; conditions: dog and human models
Description: The transfer of drugs at the BBB is unique as the mass transfer out of the vascular space surrounding the brain tissue is hindered by a permeability barrier. […] Coupling the ABCB1 transport equations as expressed above with permeability‐limited modeling equations from Choi et al.,[23] the following equations are proposed where Equation ( 4 ) describes the amount of drug within the brain tissue and Equation ( 5 ) describes the amount of drug in the vascular space surrounding the tissue: (4) VCNS*dCCNS,T/dt=PSA×CA−CCNS,V−sfABCB1,CNS×VCNS×VMAXABCB1×CCNS,V/KMABCB1+CCNS,V (5) VBB*dCBB/dt=QCNS*CA−CV−PSA×CA−CV,CNA+sfCNS×VCNS×VMAXABCB1×CCNS,V/KMABCB1+CCNS,V where VCNS is the volume of the brain tissue, VBB is the volume consisting of brain blood, CCNS,T is the concentration of drug in the brain tissue, PSA is the permeability surface area product, sfABCB1,CNS is the relative ABCB1 expression in brain tissue, and CBB is the concentration of drug in the brain blood. VCNA and VBB were set to 97% and 3% of total brain volume, respectively.[37] […] The parameter optimization method was conducted as described previously with nonlinear least squares regression. […] The corresponding Vmax,ABCB1 value was optimized to in vivo canine PK data. […]

[2] = cited from earlier work; for t1/2: Obs
dog liver microsomes = conditions: dog and human models, fit of digitized data, cited from earlier work
human ABCB1 = test system: human ABCB1; design: method as in PMID 17142983; conditions: dog and human models, cited from earlier work
in vitro = conditions: female, CD-1, mouse, liver microsomes
[3] = VBL PK study in dogs (clinical trial, serum); conditions: dog, iv, 2.5 mg/m^2 IV bolus, observed; for AUC(0-t): 2.5 mg/m2, AUCt, dogs, 0 to 24 h; for half-life: 2.5 mg/m2, t1/2, dogs
[4] = Canine PBPK model Monte Carlo simulation and model parameters; conditions: dog model
[5] = concomitant prednisone/omeprazole/diphenhydramine (POD)
[6] = optimized to mouse mdr1a/b (−/−) data

CC[C@]1(O)C[C@@H]2CN(CCc3c([nH]c4ccccc34)[C@@](C(=O)OC)(c3cc4c(cc3OC)N(C)[C@H]3[C@@](O)(C(=O)OC)[C@H](OC(C)=O)[C@]5(CC)C=CCN6CC[C@]43[C@@H]65)C2)C1 [VBL, Vinblastine]
AUC ([1]; FVB (wild-type), brain): 0.109 µM·h
AUC ([1]; FVB (wild-type), gut): 3.47 µM·h
half-life ([1]; FVB (wild-type), t1/2, wild‐type mice, brain): 3.94 h
half-life ([1]; FVB (wild-type), t1/2, wild‐type mice, gut): 1.27 h
half-life ([1]; FVB (wild-type), t1/2, wild‐type mice, kidney): 1.56 h
half-life ([1]; FVB (wild-type), t1/2, wild‐type mice, liver): 1.32 h
half-life ([1]; FVB (wild-type), t1/2, wild‐type mice, serum): 1.6 h
AUC ([1]; FVB (wild-type), kidney): 12.6 µM·h
AUC ([1]; FVB (wild-type), liver): 4.21 µM·h
AUC ([1]; FVB (wild-type), serum): 0.181 µM·h
AUC ([1]; FVB, bone marrow): 2.98 µM·h
AUC ([1]; Mdr1a/b (−/−) knock-out in FVB background, bone marrow): 2.71 µM·h
half-life ([1]; Mdr1a/b (−/−) knock-out in FVB background, t1/2, Mdr1a/b (−/−) mice, bone marrow): 5.83 h
half-life ([1]; Mdr1a/b (−/−) knock-out in FVB background, t1/2, Mdr1a/b (−/−) mice, liver): 1.8 h
AUC ([1]; Mdr1a/b (−/−) knock-out in FVB background, liver): 4.27 µM·h
AUC ([1]; Mdr1a/b (−/−) knock-out, FVB background, brain): 1.4 µM·h
AUC ([1]; Mdr1a/b (−/−) knock-out, FVB background, gut): 5.9 µM·h
half-life ([1]; Mdr1a/b (−/−) knock-out, FVB background, t1/2, Mdr1a/b (−/−) mice, gut): 3.86 h
half-life ([1]; Mdr1a/b (−/−) knock-out, FVB background, t1/2, Mdr1a/b (−/−) mice, kidney): 1.79 h
half-life ([1]; Mdr1a/b (−/−) knock-out, FVB background, t1/2, Mdr1a/b (−/−) mice, serum): 1.62 h
AUC ([1]; Mdr1a/b (−/−) knock-out, FVB background, serum): 0.215 µM·h
VmABCB1 (ABCB1; optimized to in vivo canine PK data): 64.54 nmol/L/h
Vmbil (biliary transport Vmax) (ABCB1; set equivalent to ABCB1 value): 64.54 nmol/L/h
t1/2 ([2]; Study 1: IV bolus 0.23 ± 0.08 mg/kg): 10.99 h
AUCt ([2]; Study 2: non‐small cell lung cancer, IV bolus 0.083 ± 0.009 mg/kg prior to Cisplatin infusion, n 8, Obs): 163 ± 62 h x nM
t1/2 ([2]; Study 3: IV bolus 0.2 mg/kg): 19.7 h
AUCt ([2]; Study 3: metastatic hypernephroma, IV bolus 0.2 mg/kg, n 1, Obs): 141 h x nM
Vmmet (metabolism Vmax) (dog liver microsomes; extrapolated using 55 mg protein/g liver): 189.6 µmol/L/h
Km (dog liver microsomes; read-out: Kmmet (metabolism Km)): 9.53 µM
KmABCB1 (human ABCB1; based on ATPase activity): 5760 nmol/L
Km (human ABCB1; set equivalent to ABCB1 value, read-out: Kmbil (biliary transport Km)): 5.76 µM
Km at 5 min (in vitro): 11.6 µM
AUC(0-t) ([3]; concomitant prednisolone only): 0.186 µM·h
AUC(0-t) [3, 5]: 0.0477 µM·h
half-life ([3]; all patients regardless of concomitant treatment): 18.6 h
half-life ([3]; concomitant prednisolone only): 15.7 h
half-life [3, 5]: 5.15 h
Partition coefficient PCblood [4]: 1.0
Partition coefficient PCBM ([4]; bone marrow, optimized to mouse mdr1a/b (−/−) data): 1.0
Partition coefficient PCCNS [4, 6]: 1.21
Partition coefficient PCGut [4, 6]: 1.08
Partition coefficient PCKidney [4, 6]: 3.73
Partition coefficient PCLiver [4, 6]: 2.26
